Where a name gives a salt, the structure may show the parent alone.

The subject of one series is dopamine transporter protein over the norepinephrine transporter protein. To be noted: ratio of Ki values; cited from earlier work.
As for `COC(=O)C(c1ccccc1)C1CCCCN1` (stereo not shown) [Methylphenidate, methylphenidate], the “DAT/NET Ki ratio” value is on record as 0.1.

System in a further series: not given
Settings: not given
As usually defined, the melting point is the temperature, or range, at which the solid turns liquid. `CN1Cc2c(ccc3ccoc23)C(c2ccc(F)cc2)C1` (stereo not shown) (as salt: hydrochloride) displayed a melting point of 242 to 257 °C.

`CN1Cc2c(ccc3ccoc23)C(c2cc(F)cc(F)c2)C1` (stereo not shown) (as salt: hydrochloride): the melting point lay within 233 to 236 °C.

For `CN1Cc2c(ccc3ccoc23)C(c2ccccc2)C1` (single isomer, unassigned), the melting point lay in the range of 81 to 83 °C.

As to `Cc1ccc(C2CN(C)Cc3c2ccc2ccoc32)cc1` (single isomer, unassigned) (as salt: hydrochloride), the melting point lay within 240 to 246 °C.

With `CN1Cc2c(ccc3ccoc23)C(c2ccccc2)C1` (single isomer, unassigned) (as salt: maleate), the melting point fell in the range of 165 to 168 °C.

Compound `Cc1ccc(C2CN(C)Cc3c2ccc2ccoc32)cc1` (single isomer, unassigned) (as salt: maleate) showed a melting point of 190 to 191 °C.

Source of the values: patent US7084152B2, “4-phenyl substituted tetrahydroisoquinolines therapeutic use thereof” (AMR Technology, Inc., priority 2000, dated 2006).
